Measured values taken from patent US12479847B2 (DANA-FARBER CANCER INSTITUTE, INC., priority 2019, dated 2025).

Tests used:
Assay in all cases: KINOMEscan (ScanMAX) kinase profiling
Format in all cases: binding
panel of 468 kinases [1] = biological target: T1, panel of 468 kinases (Homo sapiens, UniProt Q9Y2H9); conditions: MAST1; 1 μM; read-out: % control
T1 construct: purchased KINOMEscan (ScanMAX) service

panel of 468 kinases [2] = biological target: T2, panel of 468 kinases (Homo sapiens, UniProt P36507); conditions: MEK2; 1 μM; read-out: % control
T2 construct: purchased KINOMEscan (ScanMAX) service

panel of 468 kinases [3] = biological target: T3, panel of 468 kinases (Homo sapiens, UniProt P15056, V600E); conditions: BRAF(V600E); 1 μM; read-out: % control
T3 construct: purchased KINOMEscan (ScanMAX) service

panel of 468 kinases [4] = biological target: T4, panel of 468 kinases (Homo sapiens, UniProt P36896); conditions: ACVR1B; 1 μM; read-out: % control
T4 construct: purchased KINOMEscan (ScanMAX) service
T4 sequence (P36896 24-505): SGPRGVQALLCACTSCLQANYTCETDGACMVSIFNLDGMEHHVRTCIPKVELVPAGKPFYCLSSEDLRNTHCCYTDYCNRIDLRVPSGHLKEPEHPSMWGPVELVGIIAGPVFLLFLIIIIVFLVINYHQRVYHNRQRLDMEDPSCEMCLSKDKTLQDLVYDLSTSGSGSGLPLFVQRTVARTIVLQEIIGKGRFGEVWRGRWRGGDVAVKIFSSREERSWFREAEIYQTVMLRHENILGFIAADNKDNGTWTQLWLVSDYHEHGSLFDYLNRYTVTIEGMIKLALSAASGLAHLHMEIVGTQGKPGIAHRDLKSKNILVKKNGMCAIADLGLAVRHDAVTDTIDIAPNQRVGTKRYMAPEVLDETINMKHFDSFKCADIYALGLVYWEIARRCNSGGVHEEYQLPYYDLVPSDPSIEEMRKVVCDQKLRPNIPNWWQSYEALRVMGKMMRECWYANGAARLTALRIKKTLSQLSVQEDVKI

panel of 468 kinases [5] = biological target: T5, panel of 468 kinases (Homo sapiens, UniProt Q16816); conditions: PHKG1; 1 μM; read-out: % control
T5 construct: purchased KINOMEscan (ScanMAX) service

panel of 468 kinases [6] = biological target: T6, panel of 468 kinases (Homo sapiens, UniProt Q9P289); conditions: MST4; 1 μM; read-out: % control
T6 construct: purchased KINOMEscan (ScanMAX) service

panel of 468 kinases [7] = biological target: T7, panel of 468 kinases (Homo sapiens, UniProt P29320); conditions: EPHA3; 1 μM; read-out: % control
T7 construct: purchased KINOMEscan (ScanMAX) service
T7 sequence (P29320 21-983): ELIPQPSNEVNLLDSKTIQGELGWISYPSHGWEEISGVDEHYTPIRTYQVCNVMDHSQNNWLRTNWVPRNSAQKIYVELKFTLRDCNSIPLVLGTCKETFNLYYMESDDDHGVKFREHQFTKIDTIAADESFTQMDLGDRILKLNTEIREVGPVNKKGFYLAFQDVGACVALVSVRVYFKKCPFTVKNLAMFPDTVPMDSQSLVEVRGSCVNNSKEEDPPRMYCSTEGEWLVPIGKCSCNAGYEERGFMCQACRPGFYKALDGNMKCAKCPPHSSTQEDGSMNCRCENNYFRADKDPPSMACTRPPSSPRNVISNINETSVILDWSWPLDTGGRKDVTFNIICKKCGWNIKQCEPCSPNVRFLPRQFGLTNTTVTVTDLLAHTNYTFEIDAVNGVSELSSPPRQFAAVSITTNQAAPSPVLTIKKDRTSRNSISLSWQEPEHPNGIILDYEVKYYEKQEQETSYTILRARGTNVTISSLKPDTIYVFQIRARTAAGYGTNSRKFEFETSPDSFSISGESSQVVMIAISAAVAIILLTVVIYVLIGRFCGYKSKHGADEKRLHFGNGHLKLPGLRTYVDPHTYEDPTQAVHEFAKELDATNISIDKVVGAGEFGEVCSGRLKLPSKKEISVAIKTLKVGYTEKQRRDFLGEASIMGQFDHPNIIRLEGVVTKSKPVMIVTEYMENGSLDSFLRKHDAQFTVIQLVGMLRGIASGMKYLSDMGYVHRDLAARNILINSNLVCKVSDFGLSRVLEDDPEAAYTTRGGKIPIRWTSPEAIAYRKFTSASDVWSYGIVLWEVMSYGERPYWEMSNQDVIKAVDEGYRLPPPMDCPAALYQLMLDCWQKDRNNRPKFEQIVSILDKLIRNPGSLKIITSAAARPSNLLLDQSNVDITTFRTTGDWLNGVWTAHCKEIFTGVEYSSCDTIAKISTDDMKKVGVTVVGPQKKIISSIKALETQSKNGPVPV

panel of 468 kinases [8] = biological target: T8, panel of 468 kinases (Homo sapiens, UniProt Q13043); conditions: MST1; 1 μM; read-out: % control
T8 construct: purchased KINOMEscan (ScanMAX) service
T8 sequence (Q13043 1-487): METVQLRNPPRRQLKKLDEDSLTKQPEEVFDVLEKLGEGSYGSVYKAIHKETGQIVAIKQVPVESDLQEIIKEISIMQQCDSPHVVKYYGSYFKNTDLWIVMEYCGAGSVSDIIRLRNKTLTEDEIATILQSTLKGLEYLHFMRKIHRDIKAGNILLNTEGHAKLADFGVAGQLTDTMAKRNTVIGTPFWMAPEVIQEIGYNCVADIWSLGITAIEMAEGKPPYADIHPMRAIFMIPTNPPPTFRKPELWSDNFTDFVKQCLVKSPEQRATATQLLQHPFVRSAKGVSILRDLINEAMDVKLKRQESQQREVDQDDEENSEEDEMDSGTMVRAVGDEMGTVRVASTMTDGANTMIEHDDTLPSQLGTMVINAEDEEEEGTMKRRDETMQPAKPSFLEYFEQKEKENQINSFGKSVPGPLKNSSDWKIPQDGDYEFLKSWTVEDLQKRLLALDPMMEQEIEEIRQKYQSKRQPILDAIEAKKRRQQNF

T1 sequence (Q9Y2H9 whole entry): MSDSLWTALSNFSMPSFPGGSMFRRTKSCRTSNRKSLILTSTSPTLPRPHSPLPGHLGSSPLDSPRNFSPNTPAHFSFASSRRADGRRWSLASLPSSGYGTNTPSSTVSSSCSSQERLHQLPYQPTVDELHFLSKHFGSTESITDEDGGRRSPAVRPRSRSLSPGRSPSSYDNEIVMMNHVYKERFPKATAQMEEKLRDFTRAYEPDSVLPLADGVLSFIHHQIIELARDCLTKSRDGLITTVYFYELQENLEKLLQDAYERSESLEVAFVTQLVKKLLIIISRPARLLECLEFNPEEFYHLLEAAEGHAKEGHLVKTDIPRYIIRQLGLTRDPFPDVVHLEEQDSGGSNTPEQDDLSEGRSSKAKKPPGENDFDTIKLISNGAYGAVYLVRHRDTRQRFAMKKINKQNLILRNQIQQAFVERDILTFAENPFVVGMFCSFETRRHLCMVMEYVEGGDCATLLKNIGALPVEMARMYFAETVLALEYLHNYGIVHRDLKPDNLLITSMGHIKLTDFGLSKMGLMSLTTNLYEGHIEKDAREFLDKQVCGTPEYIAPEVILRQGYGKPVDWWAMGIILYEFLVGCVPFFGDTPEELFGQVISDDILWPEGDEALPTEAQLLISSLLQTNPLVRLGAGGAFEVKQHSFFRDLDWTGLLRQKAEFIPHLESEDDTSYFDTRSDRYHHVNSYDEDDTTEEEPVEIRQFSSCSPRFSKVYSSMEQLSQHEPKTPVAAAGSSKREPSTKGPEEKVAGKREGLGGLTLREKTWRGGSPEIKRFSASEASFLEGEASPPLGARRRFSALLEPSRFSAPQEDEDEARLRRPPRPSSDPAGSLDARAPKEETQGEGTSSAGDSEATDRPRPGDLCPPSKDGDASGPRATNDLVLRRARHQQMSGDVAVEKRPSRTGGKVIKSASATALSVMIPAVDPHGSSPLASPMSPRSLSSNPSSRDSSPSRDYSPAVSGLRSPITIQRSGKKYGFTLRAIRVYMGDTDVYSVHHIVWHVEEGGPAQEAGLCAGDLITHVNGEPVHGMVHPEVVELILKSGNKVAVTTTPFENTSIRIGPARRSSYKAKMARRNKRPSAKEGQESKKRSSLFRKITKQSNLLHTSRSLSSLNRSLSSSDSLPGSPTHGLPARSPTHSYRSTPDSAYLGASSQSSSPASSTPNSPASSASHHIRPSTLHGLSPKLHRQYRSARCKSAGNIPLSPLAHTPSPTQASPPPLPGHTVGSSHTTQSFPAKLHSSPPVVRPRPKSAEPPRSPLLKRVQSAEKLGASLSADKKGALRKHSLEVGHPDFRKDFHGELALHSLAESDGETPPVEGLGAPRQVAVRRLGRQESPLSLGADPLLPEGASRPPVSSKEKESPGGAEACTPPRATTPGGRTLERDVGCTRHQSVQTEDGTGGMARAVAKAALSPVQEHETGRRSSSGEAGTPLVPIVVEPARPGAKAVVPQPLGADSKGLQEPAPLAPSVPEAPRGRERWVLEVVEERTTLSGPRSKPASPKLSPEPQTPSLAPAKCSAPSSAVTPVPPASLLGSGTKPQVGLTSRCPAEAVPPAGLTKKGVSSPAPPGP
T6 sequence (Q9P289 whole entry): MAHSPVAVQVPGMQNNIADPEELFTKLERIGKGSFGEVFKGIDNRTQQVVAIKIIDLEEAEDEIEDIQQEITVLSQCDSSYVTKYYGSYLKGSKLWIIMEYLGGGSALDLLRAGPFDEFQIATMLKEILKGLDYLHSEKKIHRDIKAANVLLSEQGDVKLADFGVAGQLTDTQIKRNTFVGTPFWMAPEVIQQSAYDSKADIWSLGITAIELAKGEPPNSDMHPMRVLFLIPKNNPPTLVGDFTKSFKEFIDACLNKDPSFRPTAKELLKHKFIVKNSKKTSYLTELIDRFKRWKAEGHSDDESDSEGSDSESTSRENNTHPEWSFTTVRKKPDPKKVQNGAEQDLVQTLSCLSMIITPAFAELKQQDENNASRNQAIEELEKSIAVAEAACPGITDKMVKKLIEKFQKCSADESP
T5 sequence (Q16816 whole entry): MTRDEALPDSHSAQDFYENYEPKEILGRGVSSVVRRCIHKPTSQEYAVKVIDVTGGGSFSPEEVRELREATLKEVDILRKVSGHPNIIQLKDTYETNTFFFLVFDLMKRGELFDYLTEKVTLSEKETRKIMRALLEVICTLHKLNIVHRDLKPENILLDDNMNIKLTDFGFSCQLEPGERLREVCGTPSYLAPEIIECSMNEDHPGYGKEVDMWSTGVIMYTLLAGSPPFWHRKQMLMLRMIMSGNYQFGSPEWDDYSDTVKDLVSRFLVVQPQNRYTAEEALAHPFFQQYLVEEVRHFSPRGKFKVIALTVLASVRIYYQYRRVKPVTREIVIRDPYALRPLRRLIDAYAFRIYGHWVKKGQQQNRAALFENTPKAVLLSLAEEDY
T2 sequence (P36507 whole entry): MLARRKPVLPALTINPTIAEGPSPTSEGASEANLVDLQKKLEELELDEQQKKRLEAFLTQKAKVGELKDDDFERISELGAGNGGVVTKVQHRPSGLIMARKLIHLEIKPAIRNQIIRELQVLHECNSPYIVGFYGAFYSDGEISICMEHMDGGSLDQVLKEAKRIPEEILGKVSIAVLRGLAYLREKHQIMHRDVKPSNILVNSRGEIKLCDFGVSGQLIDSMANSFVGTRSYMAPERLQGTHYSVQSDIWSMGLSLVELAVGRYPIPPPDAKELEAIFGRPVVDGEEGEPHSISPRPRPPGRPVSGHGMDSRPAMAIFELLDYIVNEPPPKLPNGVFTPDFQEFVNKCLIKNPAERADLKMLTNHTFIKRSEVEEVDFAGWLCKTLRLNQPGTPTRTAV
T3 sequence (P15056 whole entry V600E): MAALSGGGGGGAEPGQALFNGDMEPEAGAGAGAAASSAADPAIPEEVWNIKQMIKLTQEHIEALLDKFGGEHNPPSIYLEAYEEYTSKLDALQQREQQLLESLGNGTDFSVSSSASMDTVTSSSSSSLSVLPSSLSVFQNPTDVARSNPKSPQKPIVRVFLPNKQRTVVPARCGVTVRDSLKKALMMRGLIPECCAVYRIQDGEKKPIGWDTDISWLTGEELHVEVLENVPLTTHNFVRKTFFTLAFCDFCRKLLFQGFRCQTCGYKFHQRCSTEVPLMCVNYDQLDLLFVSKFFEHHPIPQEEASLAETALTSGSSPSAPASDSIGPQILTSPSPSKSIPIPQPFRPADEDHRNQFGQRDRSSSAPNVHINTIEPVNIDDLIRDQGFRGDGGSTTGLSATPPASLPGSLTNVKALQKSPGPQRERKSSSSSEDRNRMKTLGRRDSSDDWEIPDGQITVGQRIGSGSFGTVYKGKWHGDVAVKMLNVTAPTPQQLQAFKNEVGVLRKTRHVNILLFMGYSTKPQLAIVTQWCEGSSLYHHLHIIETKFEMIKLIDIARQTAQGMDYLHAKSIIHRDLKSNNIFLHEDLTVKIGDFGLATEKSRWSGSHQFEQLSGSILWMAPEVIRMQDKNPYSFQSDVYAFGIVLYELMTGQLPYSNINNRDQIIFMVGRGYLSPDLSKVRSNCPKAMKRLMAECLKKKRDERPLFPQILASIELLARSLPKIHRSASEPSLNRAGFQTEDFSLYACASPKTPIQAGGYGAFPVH

| SMILES | remaining binding at 1 µM (panel of 468 kinases [1]) | remaining binding at 1 µM (panel of 468 kinases [2]) | remaining binding at 1 µM (panel of 468 kinases [3]) | remaining binding at 1 µM (panel of 468 kinases [4]) | remaining binding at 1 µM (panel of 468 kinases [5]) | remaining binding at 1 µM (panel of 468 kinases [6]) | remaining binding at 1 µM (panel of 468 kinases [7]) | remaining binding at 1 µM (panel of 468 kinases [8]) |
| --- | --- | --- | --- | --- | --- | --- | --- | --- |
| CNc1nc(Nc2ccc(C(=O)N3CCC(N4CCOCC4)CC3)c3c2OCO3)nc2[nH]cc(Cl)c12 [Compound 75, (7-((5-chloro-4-(methylamino)-7H-pyrrolo[2,3-d]pyrimidin-2-yl)amino)benzo[d][1,3]dioxol-4-yl)(4-morpholinopiperidin-1-yl)methanone] | 93% | 76% | 100% | 100% | 14% | 51% | 100% | 100% |
| CNc1nc(Nc2ccc(S(=O)(=O)N3CCC(N4CCOCC4)CC3)cc2OC)nc2[nH]cc(Cl)c12 [Compound 12, 5-chloro-N2-(2-methoxy-4-((4-morpholinopiperidin-1-yl)sulfonyl)phenyl)-N4-methyl-7H-pyrrolo[2,3-d]pyrimidine-2,4-diamine] | 100% | 78% | 91% | 100% | 25% | 80% | 100% | 81% |
| CNc1nc(Nc2ccc(P3(=O)CCN(C4CCOCC4)CC3)cc2OC)nc2[nH]cc(Cl)c12 [Compound 77, 4-(4-((5-chloro-4-(methylamino)-7H-pyrrolo[2,3-d]pyrimidin-2-yl)amino)-3-methoxyphenyl)-1-(tetrahydro-2H-pyran-4-yl)-1,4-azaphosphinane 4-oxide] | 97% | 78% | 88% | 100% | 8.4% | 76% | 100% | 100% |
